{
  "source": "paper PMC7366380",
  "about": "“Discovery of a Potent and Selective Covalent Inhibitor and Activity-Based Probe for the Deubiquitylating Enzyme UCHL1, with Antifibrotic Activity” (Journal of the American Chemical Society, 2020)",
  "test_in_all_cases": "In-cell proteome-wide competitive ABPP, HEK293: other DUBs and proteins",
  "key": {"[1]": {"target": "DUBs and other proteins in HEK293 cells (Homo sapiens, UniProt P51784)", "sequence (P51784 whole entry)": "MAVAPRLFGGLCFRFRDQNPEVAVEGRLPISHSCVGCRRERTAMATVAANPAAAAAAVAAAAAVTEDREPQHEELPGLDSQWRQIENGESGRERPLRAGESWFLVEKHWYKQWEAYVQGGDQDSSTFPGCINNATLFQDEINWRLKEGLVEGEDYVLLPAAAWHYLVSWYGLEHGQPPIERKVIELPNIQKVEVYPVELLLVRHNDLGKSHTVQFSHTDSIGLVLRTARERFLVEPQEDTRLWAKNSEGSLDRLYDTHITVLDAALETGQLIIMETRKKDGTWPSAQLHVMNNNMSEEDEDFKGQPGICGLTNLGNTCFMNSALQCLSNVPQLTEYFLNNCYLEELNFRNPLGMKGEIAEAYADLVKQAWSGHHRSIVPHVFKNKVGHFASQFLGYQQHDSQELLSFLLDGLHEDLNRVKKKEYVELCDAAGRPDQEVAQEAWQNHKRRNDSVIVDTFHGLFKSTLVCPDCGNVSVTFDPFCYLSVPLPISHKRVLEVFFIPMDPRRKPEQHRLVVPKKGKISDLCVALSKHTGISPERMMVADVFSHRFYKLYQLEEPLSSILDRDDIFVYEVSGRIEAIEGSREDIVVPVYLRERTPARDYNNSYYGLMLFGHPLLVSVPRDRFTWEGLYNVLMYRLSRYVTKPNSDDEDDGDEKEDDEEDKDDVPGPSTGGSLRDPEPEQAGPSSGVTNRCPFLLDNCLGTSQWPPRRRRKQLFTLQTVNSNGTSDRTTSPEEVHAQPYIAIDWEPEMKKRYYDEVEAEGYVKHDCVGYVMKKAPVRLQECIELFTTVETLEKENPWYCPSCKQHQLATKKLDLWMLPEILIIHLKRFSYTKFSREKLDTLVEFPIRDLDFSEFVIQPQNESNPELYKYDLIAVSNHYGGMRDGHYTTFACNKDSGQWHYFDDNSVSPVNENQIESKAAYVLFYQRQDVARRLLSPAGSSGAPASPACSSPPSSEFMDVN", "conditions": "replicates A-C; for Log2 reporter intensity values: USP11: competition with ABP 2, DMSO substract (FC); for Log2 reporter intensity values: USP11, DMSO subtracted"}, "[2]": {"target": "DUBs and other proteins in HEK293 cells (Homo sapiens, UniProt Q9UPU5)", "sequence (Q9UPU5 whole entry)": "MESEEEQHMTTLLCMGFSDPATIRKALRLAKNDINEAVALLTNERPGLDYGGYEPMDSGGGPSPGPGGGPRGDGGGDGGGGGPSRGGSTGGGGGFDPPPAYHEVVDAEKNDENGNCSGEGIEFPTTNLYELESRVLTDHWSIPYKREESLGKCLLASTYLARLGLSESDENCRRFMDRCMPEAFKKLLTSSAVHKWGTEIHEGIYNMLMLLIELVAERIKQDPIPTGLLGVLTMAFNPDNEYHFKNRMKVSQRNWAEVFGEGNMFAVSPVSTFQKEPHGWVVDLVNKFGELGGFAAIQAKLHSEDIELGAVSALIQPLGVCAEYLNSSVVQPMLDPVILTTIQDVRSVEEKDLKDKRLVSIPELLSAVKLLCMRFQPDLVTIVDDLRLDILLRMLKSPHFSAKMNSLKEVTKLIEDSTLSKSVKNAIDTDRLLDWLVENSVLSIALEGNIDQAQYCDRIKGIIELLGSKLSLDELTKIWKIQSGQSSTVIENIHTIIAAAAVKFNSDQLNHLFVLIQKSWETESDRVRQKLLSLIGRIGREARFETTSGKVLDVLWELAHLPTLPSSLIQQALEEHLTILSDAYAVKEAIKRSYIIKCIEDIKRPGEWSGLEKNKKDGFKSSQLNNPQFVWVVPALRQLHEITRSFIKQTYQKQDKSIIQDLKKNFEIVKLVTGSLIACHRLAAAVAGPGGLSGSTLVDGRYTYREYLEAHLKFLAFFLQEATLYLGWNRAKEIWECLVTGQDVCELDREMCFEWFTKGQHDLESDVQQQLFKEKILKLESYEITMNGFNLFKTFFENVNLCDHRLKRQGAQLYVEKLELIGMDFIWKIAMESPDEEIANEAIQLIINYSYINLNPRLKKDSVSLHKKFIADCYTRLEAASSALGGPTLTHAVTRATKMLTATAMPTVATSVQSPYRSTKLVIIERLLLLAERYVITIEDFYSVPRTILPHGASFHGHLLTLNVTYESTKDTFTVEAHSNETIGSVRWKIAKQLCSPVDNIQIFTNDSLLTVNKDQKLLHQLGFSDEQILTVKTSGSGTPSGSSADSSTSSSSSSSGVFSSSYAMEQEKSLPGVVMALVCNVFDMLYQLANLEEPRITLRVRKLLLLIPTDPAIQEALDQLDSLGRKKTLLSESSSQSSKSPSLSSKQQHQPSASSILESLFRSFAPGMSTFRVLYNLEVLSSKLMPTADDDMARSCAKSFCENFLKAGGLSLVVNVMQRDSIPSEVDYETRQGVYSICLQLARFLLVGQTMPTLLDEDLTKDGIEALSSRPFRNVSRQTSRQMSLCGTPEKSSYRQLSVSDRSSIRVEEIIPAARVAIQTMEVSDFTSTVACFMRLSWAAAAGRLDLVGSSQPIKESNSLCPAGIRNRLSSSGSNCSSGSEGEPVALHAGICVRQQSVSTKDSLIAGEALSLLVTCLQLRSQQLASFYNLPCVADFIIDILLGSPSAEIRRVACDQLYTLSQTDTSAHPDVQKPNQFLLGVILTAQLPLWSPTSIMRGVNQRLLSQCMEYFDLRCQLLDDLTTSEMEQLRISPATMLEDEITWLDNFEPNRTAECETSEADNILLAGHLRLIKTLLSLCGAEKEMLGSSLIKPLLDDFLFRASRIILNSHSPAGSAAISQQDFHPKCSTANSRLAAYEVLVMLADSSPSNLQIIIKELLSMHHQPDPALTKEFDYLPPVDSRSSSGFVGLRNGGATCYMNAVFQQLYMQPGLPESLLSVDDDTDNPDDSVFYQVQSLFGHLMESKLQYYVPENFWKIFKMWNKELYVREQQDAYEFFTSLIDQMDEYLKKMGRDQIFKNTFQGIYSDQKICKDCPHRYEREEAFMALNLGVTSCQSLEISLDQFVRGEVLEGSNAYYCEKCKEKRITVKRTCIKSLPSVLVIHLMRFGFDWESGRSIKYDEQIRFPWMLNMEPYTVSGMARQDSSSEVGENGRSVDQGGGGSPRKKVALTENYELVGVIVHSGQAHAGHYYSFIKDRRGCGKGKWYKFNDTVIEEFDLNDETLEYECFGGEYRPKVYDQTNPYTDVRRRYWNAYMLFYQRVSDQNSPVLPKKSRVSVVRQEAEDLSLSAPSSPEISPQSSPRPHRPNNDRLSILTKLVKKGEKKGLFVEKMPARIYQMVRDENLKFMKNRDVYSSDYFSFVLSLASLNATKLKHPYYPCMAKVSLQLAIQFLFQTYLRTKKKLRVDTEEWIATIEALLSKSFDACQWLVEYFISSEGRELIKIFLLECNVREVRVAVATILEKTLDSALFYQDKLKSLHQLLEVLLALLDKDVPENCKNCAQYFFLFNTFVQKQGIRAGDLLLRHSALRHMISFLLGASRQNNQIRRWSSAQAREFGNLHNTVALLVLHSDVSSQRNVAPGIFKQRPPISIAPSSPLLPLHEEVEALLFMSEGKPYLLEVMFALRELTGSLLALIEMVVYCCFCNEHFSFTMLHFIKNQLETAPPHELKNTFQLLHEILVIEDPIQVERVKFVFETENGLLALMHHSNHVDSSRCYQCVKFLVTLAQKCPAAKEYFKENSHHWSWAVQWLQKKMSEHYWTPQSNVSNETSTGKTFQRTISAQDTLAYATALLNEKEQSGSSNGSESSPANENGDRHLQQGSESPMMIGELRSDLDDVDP", "conditions": "replicates A-C; for Log2 reporter intensity values: USP24: competition with ABP 2, DMSO substract (FC); for Log2 reporter intensity values: USP24, DMSO subtracted"}, "[3]": {"target": "T1, DUBs and other proteins in HEK293 cells (Homo sapiens, UniProt Q9Y5K5)", "T1 sequence (Q9Y5K5 1-329)": "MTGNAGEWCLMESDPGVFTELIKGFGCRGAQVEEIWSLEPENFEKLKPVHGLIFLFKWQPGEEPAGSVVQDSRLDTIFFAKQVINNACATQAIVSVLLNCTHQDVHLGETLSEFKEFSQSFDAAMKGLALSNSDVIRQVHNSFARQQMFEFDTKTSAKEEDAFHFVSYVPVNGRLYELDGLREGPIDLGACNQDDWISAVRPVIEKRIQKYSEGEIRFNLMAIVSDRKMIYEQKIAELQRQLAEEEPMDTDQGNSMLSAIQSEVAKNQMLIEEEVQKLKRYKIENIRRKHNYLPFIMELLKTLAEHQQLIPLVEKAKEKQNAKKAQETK", "conditions": "replicates A-C; for Log2 reporter intensity values: UCHL5: competition with ABP 2, DMSO substract (FC); for Log2 reporter intensity values: UCHL5, DMSO subtracted"}, "[4]": {"target": "DUBs and other proteins in HEK293 cells (Homo sapiens, UniProt Q7L5N1)", "sequence (Q7L5N1 whole entry)": "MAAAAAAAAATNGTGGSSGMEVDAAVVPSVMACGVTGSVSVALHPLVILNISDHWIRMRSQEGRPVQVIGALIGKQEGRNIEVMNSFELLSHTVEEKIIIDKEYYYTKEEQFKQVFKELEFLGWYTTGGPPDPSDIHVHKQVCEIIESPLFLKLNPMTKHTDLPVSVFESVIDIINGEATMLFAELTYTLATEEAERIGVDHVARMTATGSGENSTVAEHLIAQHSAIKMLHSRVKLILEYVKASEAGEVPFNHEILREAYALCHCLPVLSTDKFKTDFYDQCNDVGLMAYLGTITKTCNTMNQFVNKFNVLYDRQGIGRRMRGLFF", "conditions": "for Log2 reporter intensity values, COPS6: TMT replicates; for Log2 reporter intensity values / Log2 reporter intensity values: COPS6: replicates A-C; for Log2 reporter intensity values: COPS6: competition with ABP 2, DMSO substract (FC)"}, "[5]": {"target": "T2, DUBs and other proteins in HEK293 cells (Homo sapiens, UniProt Q96K76)", "T2 sequence (Q96K76 1-1375)": "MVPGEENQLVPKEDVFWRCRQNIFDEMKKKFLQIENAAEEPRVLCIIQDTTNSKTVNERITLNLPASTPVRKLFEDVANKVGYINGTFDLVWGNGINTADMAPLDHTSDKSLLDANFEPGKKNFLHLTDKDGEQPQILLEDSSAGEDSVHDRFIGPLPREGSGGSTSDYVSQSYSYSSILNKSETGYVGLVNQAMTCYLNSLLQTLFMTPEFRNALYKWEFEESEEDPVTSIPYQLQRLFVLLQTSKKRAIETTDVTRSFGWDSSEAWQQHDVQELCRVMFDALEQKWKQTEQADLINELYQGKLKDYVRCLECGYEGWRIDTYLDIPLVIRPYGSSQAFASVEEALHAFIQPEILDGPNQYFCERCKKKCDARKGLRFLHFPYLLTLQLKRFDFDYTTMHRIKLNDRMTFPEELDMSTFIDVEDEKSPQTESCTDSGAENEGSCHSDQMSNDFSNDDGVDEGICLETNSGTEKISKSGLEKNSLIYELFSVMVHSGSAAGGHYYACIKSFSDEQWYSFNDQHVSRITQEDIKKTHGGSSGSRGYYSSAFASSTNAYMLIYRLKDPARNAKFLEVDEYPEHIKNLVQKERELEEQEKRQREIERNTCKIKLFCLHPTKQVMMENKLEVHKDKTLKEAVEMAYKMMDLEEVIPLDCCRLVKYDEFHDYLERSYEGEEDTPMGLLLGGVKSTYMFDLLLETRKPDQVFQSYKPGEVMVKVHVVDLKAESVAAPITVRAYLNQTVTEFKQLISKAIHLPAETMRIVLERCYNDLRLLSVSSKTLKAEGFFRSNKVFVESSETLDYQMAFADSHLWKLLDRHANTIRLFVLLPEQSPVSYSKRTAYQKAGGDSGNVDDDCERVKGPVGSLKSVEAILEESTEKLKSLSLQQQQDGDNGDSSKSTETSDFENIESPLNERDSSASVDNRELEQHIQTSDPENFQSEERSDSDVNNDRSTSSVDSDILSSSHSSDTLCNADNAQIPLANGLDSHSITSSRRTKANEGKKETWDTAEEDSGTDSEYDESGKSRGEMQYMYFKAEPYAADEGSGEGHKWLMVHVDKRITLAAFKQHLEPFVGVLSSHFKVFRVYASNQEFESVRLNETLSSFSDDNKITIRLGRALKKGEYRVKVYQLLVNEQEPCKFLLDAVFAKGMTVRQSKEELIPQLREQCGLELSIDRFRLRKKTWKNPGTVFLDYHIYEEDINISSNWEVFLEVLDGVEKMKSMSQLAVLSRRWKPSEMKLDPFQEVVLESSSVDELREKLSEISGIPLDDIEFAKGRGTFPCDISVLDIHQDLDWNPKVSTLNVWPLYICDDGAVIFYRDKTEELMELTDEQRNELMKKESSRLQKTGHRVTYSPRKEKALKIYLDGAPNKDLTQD", "conditions": "replicates A-C; for Log2 reporter intensity values: USP47: competition with ABP 2, DMSO substract (FC); for Log2 reporter intensity values: USP47, DMSO subtracted"}, "[6]": {"target": "DUBs and other proteins in HEK293 cells (Homo sapiens, UniProt Q92905)", "sequence (Q92905 whole entry)": "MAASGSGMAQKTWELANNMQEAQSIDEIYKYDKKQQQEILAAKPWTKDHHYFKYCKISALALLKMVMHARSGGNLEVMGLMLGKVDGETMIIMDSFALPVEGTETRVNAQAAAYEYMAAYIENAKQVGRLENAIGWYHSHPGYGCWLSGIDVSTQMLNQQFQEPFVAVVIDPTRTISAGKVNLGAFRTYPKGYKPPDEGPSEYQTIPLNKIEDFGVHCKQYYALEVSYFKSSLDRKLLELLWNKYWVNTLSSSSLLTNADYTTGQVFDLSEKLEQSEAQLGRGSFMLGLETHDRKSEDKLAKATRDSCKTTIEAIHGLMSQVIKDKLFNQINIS", "conditions": "for Log2 reporter intensity values, COPS5: TMT replicates; for Log2 reporter intensity values / Log2 reporter intensity values: COPS5: replicates A-C; for Log2 reporter intensity values: COPS5: competition with ABP 2, DMSO substract (FC)"}, "[7]": {"conditions": "5 μM LDN-57444 (60 min) + 20 nM ABP 2 (10 min), All values"}, "[8]": {"conditions": "5 μM LDN-57444 (60 min) + 20 nM ABP 2 (10 min), DMSO subtracted"}, "[9]": {"conditions": "25 μM LDN-57444 (60 min) + 20 nM ABP 2 (10 min), All values"}, "[10]": {"conditions": "25 μM LDN-57444 (60 min) + 20 nM ABP 2 (10 min), DMSO subtracted"}},
  "note": "“And” between values parts separate entries of the source, which are not always exact repeats. Identical values can stand only once.",
  "data": [
    {"smiles": "CC(=O)O/N=C1\\C(=O)N(Cc2cc(Cl)ccc2Cl)c2ccc(Cl)cc21", "note": "[LDN]", "values": [
      {"measurement": "Log2 reporter intensity values: USP11", "setting": "[1]; LDN at 5 μM", "result": "1.03 and 1.059 and 1.019"},
      {"measurement": "Log2 reporter intensity values: USP11", "setting": "[1]; LDN at 25 μM", "result": "1.058 and 0.9885 and 1.048"},
      {"measurement": "Log2 reporter intensity values", "setting": "[1]; LDN at 5 μM", "result": "0.04194 and 0.08295 and 0.02661"},
      {"measurement": "Log2 reporter intensity values", "setting": "[1]; LDN at 25 μM", "result": "0.082 and -0.01664 and 0.06827"},
      {"measurement": "Log2 reporter intensity values", "setting": "[1]; LDN_5 μM", "result": "0.02916 and 0.05885 and 0.01828"},
      {"measurement": "Log2 reporter intensity values", "setting": "[1]; LDN_25 μM", "result": "0.05815 and -0.0118 and 0.04812"},
      {"measurement": "Log2 reporter intensity values: USP24", "setting": "[2]; LDN at 5 μM", "result": "0.8375 and 1.105 and 1.062"},
      {"measurement": "Log2 reporter intensity values: USP24", "setting": "[2]; LDN at 25 μM", "result": "1.15 and 1.015 and 1.054"},
      {"measurement": "Log2 reporter intensity values", "setting": "[2]; LDN at 5 μM", "result": "-0.2559 and 0.1441 and 0.08741"},
      {"measurement": "Log2 reporter intensity values", "setting": "[2]; LDN at 25 μM", "result": "0.2018 and 0.02211 and 0.07566"},
      {"measurement": "Log2 reporter intensity values", "setting": "[2]; LDN_5 μM", "result": "-0.1659 and 0.1016 and 0.0591"},
      {"measurement": "Log2 reporter intensity values", "setting": "[2]; LDN_25 μM", "result": "0.1468 and 0.01208 and 0.05048"},
      {"measurement": "Log2 reporter intensity values: UCHL5", "setting": "[3]; LDN at 5 μM", "result": "1.097 and 1.066 and 1.089"},
      {"measurement": "Log2 reporter intensity values: UCHL5", "setting": "[3]; LDN at 25 μM", "result": "0.9397 and 0.9601 and 0.908"},
      {"measurement": "Log2 reporter intensity values", "setting": "[3]; LDN at 5 μM", "result": "0.134 and 0.09247 and 0.1227"},
      {"measurement": "Log2 reporter intensity values", "setting": "[3]; LDN at 25 μM", "result": "-0.08966 and -0.05875 and -0.1393"},
      {"measurement": "Log2 reporter intensity values", "setting": "[3]; LDN_5 μM", "result": "0.09668 and 0.06552 and 0.08811"},
      {"measurement": "Log2 reporter intensity values", "setting": "[3]; LDN_25 μM", "result": "-0.06093 and -0.04058 and -0.09272"},
      {"measurement": "Log2 reporter intensity values, COPS6", "setting": "[4]; [7]", "result": "0.1306 and 0.0287 and 0.0623"},
      {"measurement": "Log2 reporter intensity values, COPS6", "setting": "[4]; [8]", "result": "0.1181 and 0.01629 and 0.04989"},
      {"measurement": "Log2 reporter intensity values, COPS6", "setting": "[4]; [9]", "result": "-0.04892 and -0.02797 and -0.1172"},
      {"measurement": "Log2 reporter intensity values, COPS6", "setting": "[4]; [10]", "result": "-0.06133 and -0.04038 and -0.1296"},
      {"measurement": "Log2 t-test Difference", "setting": "[4]; COPS6, LDN - 5 μM", "result": 0.0178},
      {"measurement": "Log2 reporter intensity values", "setting": "[4]; COPS6, LDN at 5 μM, DMSO subtracted", "result": "0.1181 and 0.01629 and 0.04989"},
      {"measurement": "Log2 reporter intensity values", "setting": "[4]; COPS6, LDN at 25 μM, DMSO subtracted", "result": "-0.06133 and -0.04038 and -0.1296"},
      {"measurement": "Log2 reporter intensity values", "setting": "[4]; COPS6, LDN_5 μM, DMSO subtracted", "result": "0.08523 and 0.01124 and 0.03507"},
      {"measurement": "Log2 reporter intensity values", "setting": "[4]; COPS6, LDN_25 μM, DMSO subtracted", "result": "-0.04173 and -0.02772 and -0.08603"},
      {"measurement": "Log2 reporter intensity values: COPS6", "setting": "[4]; LDN at 5 μM", "result": "1.085 and 1.011 and 1.035"},
      {"measurement": "Log2 reporter intensity values: COPS6", "setting": "[4]; LDN at 25 μM", "result": "0.9584 and 0.9724 and 0.9141"},
      {"measurement": "Log2 reporter intensity values: USP47", "setting": "[5]; LDN at 5 μM", "result": "0.9979 and 0.9926 and 1.029"},
      {"measurement": "Log2 reporter intensity values: USP47", "setting": "[5]; LDN at 25 μM", "result": "1.08 and 1.079 and 1.007"},
      {"measurement": "Log2 reporter intensity values", "setting": "[5]; LDN at 5 μM", "result": "-0.003055 and -0.01068 and 0.04147"},
      {"measurement": "Log2 reporter intensity values", "setting": "[5]; LDN at 25 μM", "result": "0.1109 and 0.1092 and 0.01034"},
      {"measurement": "Log2 reporter intensity values", "setting": "[5]; LDN_5 μM", "result": "-0.002223 and -0.007484 and 0.02905"},
      {"measurement": "Log2 reporter intensity values", "setting": "[5]; LDN_25 μM", "result": "0.07978 and 0.07849 and 0.007088"},
      {"measurement": "Log2 reporter intensity values, COPS5", "setting": "[6]; [7]", "result": "0.02618 and -0.0337 and -0.04942"},
      {"measurement": "Log2 reporter intensity values, COPS5", "setting": "[6]; [8]", "result": "0.0843 and 0.02441 and 0.00869"},
      {"measurement": "Log2 reporter intensity values, COPS5", "setting": "[6]; [9]", "result": "0.09342 and -0.06531 and -0.07503"},
      {"measurement": "Log2 reporter intensity values, COPS5", "setting": "[6]; [10]", "result": "0.1515 and -0.007194 and -0.01692"},
      {"measurement": "Log2 t-test Difference", "setting": "[6]; COPS5, LDN - 5 μM", "result": -0.1232},
      {"measurement": "Log2 reporter intensity values", "setting": "[6]; COPS5, LDN at 5 μM, DMSO subtracted", "result": "0.0843 and 0.02441 and 0.00869"},
      {"measurement": "Log2 reporter intensity values", "setting": "[6]; COPS5, LDN at 25 μM, DMSO subtracted", "result": "0.1515 and -0.007194 and -0.01692"},
      {"measurement": "Log2 reporter intensity values", "setting": "[6]; COPS5, LDN_5 μM, DMSO subtracted", "result": "0.06009 and 0.01698 and 0.005959"},
      {"measurement": "Log2 reporter intensity values", "setting": "[6]; COPS5, LDN_25 μM, DMSO subtracted", "result": "0.1107 and -0.005057 and -0.01174"},
      {"measurement": "Log2 reporter intensity values: COPS5", "setting": "[6]; LDN at 5 μM", "result": "1.06 and 1.017 and 1.006"},
      {"measurement": "Log2 reporter intensity values: COPS5", "setting": "[6]; LDN at 25 μM", "result": "1.111 and 0.995 and 0.9883"}
    ]}
  ]
}
